According to the supplement of paper PMC11061612:

What was measured:
Assay in all cases: Bliss excess, mean over the matrix (fraction); higher = more synergy
[1] = test system: HH (T-Cell Non-Hodgkin's Lymphoma)
Summary of the method: (§1)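 Cell lines in DMEM/F12 or RPMI with 10% FBS were plated in 1536-well plates, held 24 hours at 37°C, 5% CO2, then given two-drug dose matrices for 72 hours (DMSO typically 0.2%). Viability was read by CellTiter-Glo 2.0 luminescence and scaled as inhibition from 0 (vehicle wells) to 1 (blank wells). Combination Emax is the second-highest inhibition in the matrix; Bliss excess is observed combination effect minus expected EA + EB − EA·EB, EA and EB being single-agent effects.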

[2] = test system: HuCCT1 (Biliary Tract Carcinoma)
Summary of the method: as §1

[3] = test system: KYAE-1 (Esophageal Adenocarcinoma)
Summary of the method: as §1

[4] = test system: LNZTA3WT4 (Low Grade Glioma)
Summary of the method: as §1

LOXIMVI (Melanoma) = test system: LOXIMVI (Melanoma)
Summary of the method: as §1

[5] = test system: SNU-16 (Gastric Carcinoma)
Summary of the method: as §1

[6] = test system: SNU-449 (Hepatocellular Carcinoma)
Summary of the method: as §1

[7] = test system: SW1710 (Bladder Carcinoma)
Summary of the method: as §1

[8] = test system: TGBC1TKB (Biliary Tract Carcinoma)
Summary of the method: as §1

[9] = test system: YAPC (Pancreatic Carcinoma)
Summary of the method: as §1

[10] = test system: BFTC-909 (Kidney Carcinoma)
Summary of the method: as §1

BPH-1 (Non-Cancerous) = test system: BPH-1 (Non-Cancerous)
Summary of the method: as §1

[11] = test system: FTC-133 (Thyroid Gland Carcinoma)
Summary of the method: as §1

[12] = test system: HuH-7 (Hepatocellular Carcinoma)
Summary of the method: as §1

[13] = test system: KMRC-20 (Kidney Carcinoma)
Summary of the method: as §1

NCI-H2052 (Mesothelioma) = test system: NCI-H2052 (Mesothelioma)
Summary of the method: as §1

[14] = test system: NCI-H209 (Small Cell Lung Carcinoma)
Summary of the method: as §1

[15] = test system: OE21 (Esophageal Squamous Cell Carcinoma)
Summary of the method: as §1

[16] = test system: OV-56 (Ovarian Carcinoma)
Summary of the method: as §1

[17] = test system: SW1573 (Lung Adenocarcinoma)
Summary of the method: as §1

Structure (SMILES)	Bliss excess [1]	Bliss excess [2]	Bliss excess [3]	Bliss excess [4]	Bliss excess (LOXIMVI (Melanoma))	Bliss excess [5]	Bliss excess [6]	Bliss excess [7]	Bliss excess [8]	Bliss excess [9]	Bliss excess [10]	Bliss excess (BPH-1 (Non-Cancerous))	Bliss excess [11]	Bliss excess [12]	Bliss excess [13]	Bliss excess (NCI-H2052 (Mesothelioma))	Bliss excess [14]	Bliss excess [15]	Bliss excess [16]	Bliss excess [17]
N#Cc1cnc(Nc2cc(NC[C@H]3CNCCO3)c(C(F)(F)F)cn2)cn1 [SRA737] + C=CCn1c(=O)c2cnc(Nc3ccc(N4CCN(C)CC4)cc3)nc2n1-c1cccc(C(C)(C)O)n1 [AZD1775] (first compound max 10 µM, partner max 1 µM)	0.0569	-0.0292	0.0021	-0.0108	0.0086	0.109	0.0354	0.0292	-0.0128	0.0265	–	–	–	–	–	–	–	–	–	–
Cc1cc2ncnn2cc1Nc1ncc2c(n1)n(C1CCOCC1)c(=O)n2C [AZD7648] + CN(C)CCCOc1ccc(-c2ccc3ncc4c(c3c2)n(C2CCOCC2)c(=O)n4C)cn1 [AZD0156] (first compound max 10 µM, 7x7, partner max 1 µM)	-0.0338	0.0032	0.0007	0.0113	-0.0141	0.0214	-0.0457	-0.01	-0.027	-0.0126	-0.0032	0.0049	0.0239	-0.006	-0.0232	0.0038	0.048	-0.0629	0.0081	-0.0114
N#Cc1cnc(Nc2cc(NC[C@H]3CNCCO3)c(C(F)(F)F)cn2)cn1 [SRA737] + CCc1c2c(nc3ccc(O)cc13)-c1cc3c(c(=O)n1C2)COC(=O)[C@]3(O)CC [SN-38] (first compound max 10 µM, 7x7, partner max 0.3 µM)	0.017	0.0261	0.0142	-0.002	-0.0354	0.0524	0.0341	0.0736	0.0008	-0.041	–	–	–	–	–	–	–	–	–	–
C[C@@H](c1ccc2nccn2c1)n1nnc2ncc(-c3cnn(C)c3)nc21 [Savolitinib] + CC1(C)CCC(CN2CCN(c3ccc(C(=O)NS(=O)(=O)c4ccc(NCC5CCOCC5)c([N+](=O)[O-])c4)c(Oc4cnc5[nH]ccc5c4)c3)CC2)=C(c2ccc(Cl)cc2)C1 [Venetoclax] (first compound max 1 µM, 7x7, partner max 1 µM)	-0.0712	-0.0525	-0.014	-0.0907	-0.0355	-0.0188	-0.0358	-0.0561	-0.0122	-0.0232	-0.0401	-0.0928	-0.0611	-0.0573	-0.0524	-0.0549	-0.0361	-0.0443	-0.0419	-0.0736
Cc1cc2ncnn2cc1Nc1ncc2c(n1)n(C1CCOCC1)c(=O)n2C [AZD7648] + O=C(c1cc(Cc2n[nH]c(=O)c3ccccc23)ccc1F)N1CCN(C(=O)C2CC2)CC1 [Olaparib] (first compound max 10 µM, 7x7, partner max 10 µM)	-0.0269	-0.028	-0.0362	-0.0341	-0.0577	-0.0301	-0.0525	-0.0377	-0.0649	-0.0521	-0.037	0.0337	-0.0306	-0.0389	-0.0594	-0.0521	0.0055	-0.088	-0.0157	-0.0158
CN(CCO)CC[C@H](CSc1ccccc1)Nc1ccc(S(=O)(=O)NC(=O)c2ccc(N3CCC([C@@H](O)c4ccccc4-c4ccc(Cl)cc4)CC3)cc2)cc1S(=O)(=O)C(F)(F)F [AZD4320] + CCN(CCO)CCCOc1ccc2c(Nc3cc(CC(=O)Nc4cccc(F)c4)[nH]n3)ncnc2c1 [AZD2811] (first compound max 1 µM, 7x7, partner max 1 µM)	-0.0135	-0.0283	-0.0149	-0.0224	0.0896	0.0638	-0.0649	-0.0291	-0.0478	-0.0464	0.0605	-0.0079	0.0384	-0.0268	0.0024	-0.0462	0.184	-0.0212	-0.0293	0.004
Cc1cc2ncnn2cc1Nc1ncc2c(n1)n(C1CCOCC1)c(=O)n2C [AZD7648] + COc1cc([C@@H]2c3cc4c(cc3[C@@H](O[C@@H]3O[C@@H]5CO[C@@H](C)O[C@H]5[C@H](O)[C@H]3O)[C@H]3COC(=O)[C@H]23)OCO4)cc(OC)c1O [Etoposide] (first compound max 10 µM, 7x7, partner max 10 µM)	-0.0254	0.0335	0.0032	0.102	0.0988	0.0953	0.0282	-0.0119	0.0108	0.0217	–	–	–	–	–	–	–	–	–	–
Cc1cc2ncnn2cc1Nc1ncc2c(n1)n(C1CCOCC1)c(=O)n2C [AZD7648] + CCN(CCO)CCCOc1ccc2c(Nc3cc(CC(=O)Nc4cccc(F)c4)[nH]n3)ncnc2c1 [AZD2811] (first compound max 10 µM, 7x7, partner max 1 µM)	-0.0598	0.0401	-0.002	0.0063	-0.0125	0.0793	0.0117	0.0167	0.0111	0.0032	0.0076	0.0033	0.0066	-0.0065	0.026	-0.0104	0.0054	0.0379	0.0307	0.0327
N#Cc1cnc(Nc2cc(NC[C@H]3CNCCO3)c(C(F)(F)F)cn2)cn1 [SRA737] + Nc1ccn([C@@H]2O[C@H](CO)[C@@H](O)C2(F)F)c(=O)n1 [Gemcitabine] (first compound max 10 µM, 7x7, partner max 0.3 µM)	0.0878	0.0507	0.0075	0.0301	-0.0122	-0.103	0.0307	0.164	0.0401	0.0439	–	–	–	–	–	–	–	–	–	–
COc1cc2ncnc(Nc3ccc(F)c(Cl)c3)c2cc1OCCCN1CCOCC1 [Gefitinib] + CC(C)n1c(=O)n(C)c2cnc3cc(F)c(-c4ccc(OCCCN5CCCCC5)nc4)cc3c21 [AZD1390] (first compound max 10 µM, 7x7, partner max 0.3 µM)	-0.0263	-0.0347	-0.0421	-0.0393	-0.0384	-0.0183	-0.0529	-0.041	-0.0264	-0.0233	-0.0614	-0.0347	-0.0752	-0.042	-0.056	-0.0544	-0.0831	-0.0696	-0.0543	-0.0726
COc1nnc2ccc(N3CCC(c4ccc(OCCN5CCN(C)C(=O)[C@H]5C)cc4)CC3)nn12 [AZD5153] + CN(CC[C@H](CSC1=CC=CC=C1)NC2=C(C=C(C=C2)S(=O)(=O)NC(=O)C3=CC=C(C=C3)N4CCC(CC4)[C@H](C5=CC=CC=C5C6=CC=C(C=C6)Cl)O)S(=O)(=O)C(F)(F)F)CCO [AZD4320] (first compound max 1 µM, 7x7, partner max 1 µM)	–	–	–	–	–	–	–	–	–	–	0.0663	0.0728	0.112	0.11	0.0384	-0.0348	0.01	0.0129	0.015	0.089
Cc1nc(Nc2ncc(C(=O)Nc3c(C)cccc3Cl)s2)cc(N2CCN(CCO)CC2)n1 [Dasatinib] + CC(=O)Nc1cccc(-n2c(=O)n(C3CC3)c(=O)c3c(Nc4ccc(I)cc4F)n(C)c(=O)c(C)c32)c1 [Trametinib] (first compound max 2 µM, 7x7, partner max 1 µM)	-0.0188	-0.0272	-0.0114	-0.0794	0.0175	-0.0261	-0.0631	-0.0546	0.123	0.0605	-0.0139	-0.0801	-0.0878	0.0586	-0.0518	-0.0528	-0.039	-0.0561	0.0114	-0.0715
COc1cc2c(cc1OCCCCCOc1cc3c(cc1OC)C(=O)N1C=C(C)C[C@H]1C=N3)N=C[C@@H]1CC(C)=CN1C2=O [SG3199] + O=C(c1cc(Cc2n[nH]c(=O)c3ccccc23)ccc1F)N1CCN(C(=O)C2CC2)CC1 [Olaparib] (first compound max 0.001 µM, 7x7, partner max 10 µM)	-0.0344	-0.0309	-0.0195	-0.0444	-0.0599	-0.0598	-0.0647	-0.0334	-0.0438	-0.0534	-0.0308	0.0391	-0.013	-0.0363	-0.0192	-0.0319	0.0051	-0.0537	-0.0297	-0.0312
Cc1cc2ncnn2cc1Nc1ncc2c(n1)n(C1CCOCC1)c(=O)n2C [AZD7648] + C[C@@H]1COCCN1C2=NC(=NC(=C2)C3(CC3)[S@](=N)(=O)C)C4=C5C=CNC5=NC=C4 [AZD6738] (first compound max 10 µM, 7x7, partner max 10 µM)	0.0284	-0.0087	0.0399	-0.0165	-0.0019	-0.009	0.0318	0.0067	-0.002	0.0058	-0.0204	-0.0251	-0.0369	0.0151	-0.0207	0.0186	-0.0155	-0.0793	0.0044	0.0293
